ChEMBL document CHEMBL1201862, “PubChem BioAssay data set” (2004)
Calls of active or inactive are those of the source. For most assays here, no stated cut-off is given here; in the data, actives have a measured EC50 and inactives only a lower limit.

Legend:
[1] = Luminescence Cell-Based Dose Response HTS to Identify Activators of Luciferase Translation or Activity in H4 […] Cells. [Related pubchem assays: 1829 (Project Summary), 1814 (Primary HTS)]; assay type: functional
[2] = Luminescence Cell-Based Dose Confirmation HTS to Identify Activators of 5'UTR Stem-Loop Driven Alpha-Synuclein mRNA Translation in H4 Neuroglioblastoma Cells. [Related pubchem assays: 1829 (Project Summary), 1814 (Primary HTS)]; assay type: functional
H4 = assay: Luminescence Cell-Based Dose Response HTS to Identify Activators of 5'UTR Stem-Loop Driven Prion Protein mRNA Translation in H4 Neuroglioblastoma Cells. [Related pubchem assays: 1829 (Project Summary), 1814 (Primary HTS)]; assay type: functional; conditions: Homo sapiens
[3] = viability of uninfected HEp-2 cells – cell-based, HTS, cytotoxicity control for RSV inhibitor project, dose response (AID 2410); assay type: functional; conditions: human respiratory syncytial virus
Streptokinase A = target: T1, Streptokinase A (Streptococcus pyogenes serotype M1, UniProt P10520); assay: viability-normalized secreted streptokinase activity reduction – plasminogen activation absorbance, OD405, dose response (AID 1914); assay type: functional, Streptococcus pyogenes M1 GAS;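 further: secreted streptokinase activity via plasminogen activation per viability signal from cell pellet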
T1 sequence (P10520 whole entry): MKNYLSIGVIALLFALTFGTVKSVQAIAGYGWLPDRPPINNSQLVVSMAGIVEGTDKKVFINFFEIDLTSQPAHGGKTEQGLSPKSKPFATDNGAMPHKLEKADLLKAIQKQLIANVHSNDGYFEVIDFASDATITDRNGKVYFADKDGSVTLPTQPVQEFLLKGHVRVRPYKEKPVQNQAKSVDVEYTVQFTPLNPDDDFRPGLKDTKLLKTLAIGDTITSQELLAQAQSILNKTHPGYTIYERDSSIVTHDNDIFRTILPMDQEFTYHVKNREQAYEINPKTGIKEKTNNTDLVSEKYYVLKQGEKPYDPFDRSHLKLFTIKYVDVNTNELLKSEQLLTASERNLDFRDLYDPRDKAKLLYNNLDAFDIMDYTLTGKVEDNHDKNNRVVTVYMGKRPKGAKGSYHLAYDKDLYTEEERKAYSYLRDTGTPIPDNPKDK

[4] = target: T2, Heat shock factor protein 1 (Mus musculus, UniProt P38532); assay: enhancement of HSF1-driven luciferase signal – cell-based, NIH3T3, luminescence, dose retest, confirmation (AID 435004); assay type: functional;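 further: stress induced by proteasome inhibitor MG132 added 30 min after compound; luciferase reporter driven by HSF1 response element in NIH3T3 cells; actives raise luminescence as potentiators of the MG132 stress response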
T2 sequence (P38532 whole entry): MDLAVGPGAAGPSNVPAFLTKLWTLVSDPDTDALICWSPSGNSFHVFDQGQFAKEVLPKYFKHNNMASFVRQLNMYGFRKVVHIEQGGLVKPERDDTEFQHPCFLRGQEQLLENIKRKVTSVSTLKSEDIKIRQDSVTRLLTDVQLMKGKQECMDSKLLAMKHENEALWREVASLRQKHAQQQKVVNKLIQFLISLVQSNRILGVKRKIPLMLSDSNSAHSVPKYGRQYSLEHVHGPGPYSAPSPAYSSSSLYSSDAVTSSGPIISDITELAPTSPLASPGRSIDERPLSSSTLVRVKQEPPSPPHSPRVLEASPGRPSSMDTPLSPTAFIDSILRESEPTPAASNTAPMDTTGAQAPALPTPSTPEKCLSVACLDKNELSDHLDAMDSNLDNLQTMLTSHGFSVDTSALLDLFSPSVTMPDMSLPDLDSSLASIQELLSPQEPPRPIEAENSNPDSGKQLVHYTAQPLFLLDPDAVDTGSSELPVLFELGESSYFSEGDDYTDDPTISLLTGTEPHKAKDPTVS

Streptococcus = assay: GAS UMAA2166 growth inhibition – luminescence, BacTiterGlo, counter-screen for streptokinase expression inhibitor project, dose response (AID 1915); assay type: functional, organism-based;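 further: potency for reduction of bacterial viability or growth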
[5] = test system: Streptococcus sp. 'group A'; assay: Streptococcus pyogenes SK(-)GAS viability under kanamycin – luminescence, BacTiterGlo, confirmation, counter-screen for streptokinase expression inhibitor project, dose response (AID 1900); assay type: functional, organism-based
[6] = target: T2, Heat shock factor protein 1; assay: decrease of HSF1-responsive luciferase luminescence – cell-based, NIH3T3, dose retest, confirmation (AID 2382); assay type: functional;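 further: NIH3T3 fibroblasts with HSF1-driven luciferase reporter stressed by proteasome inhibitor MG132; luminescence from HSF1-driven luciferase expression after 8 hours of MG132 stress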
H9c2 = assay: cells; assay type: functional, cell-based; conditions: Rattus norvegicus, H9c2, Myocardium;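 further: confirmatory concentration-response retest of ultra-high-throughput screening hits for modulation of myocardial damage; cell death induced by hydrogen peroxide oxidative stress; compound pretreatment for 60 min then peroxide exposure for 2 h; potency is for protecting the cells against peroxide damage rather than for killing them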
[7] = luciferase reporter signal suppression in cells – H4 neuroglioma cells, luminescence, dose response (AID 1990); assay type: functional, cell-based
[8] = alpha-synuclein stem-loop luciferase translation blockers – H4 neuroglioma cells, luminescence, confirmation (AID 1988); assay type: functional, cell-based
[9] = Luminescence Cell-Based Dose Response HTS to Identify Inhibitors of 5'UTR Stem-Loop Driven Prion Protein mRNA Translation in H4 Neuroglioblastoma Cells. [Related pubchem assays: 1827 (Project Summary), 1813 (Primary HTS)]; assay type: functional
[10] = Luminescence Cell-Based Dose Retest to Confirm Inhibitors of Cancer Stem Cells. [Related pubchem assays (depositor defined):AID2717, AID2721]; assay type: functional; conditions: Homo sapiens
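Wherever AC50 is given: cells exposed to compound for roughly 70 hours or longer before luminescence read.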

O=C(CSc1ncnc2ccccc12)c1ccc2c(c1)OCCO2
EC50 [1]: 90.6 µM (active)
EC50 [2]: 12.9 µM (active)
EC50 (H4): > 120 µM (not active)

O=[N+]([O-])c1ccc(N2CCc3ccccc3C2)nc1
CC50 [3]: 19.6 µM (active)

Cc1nnc(SC(C(=O)Nc2cc(Cl)cc(Cl)c2)c2ccccc2)[nH]c1=O (stereo unspecified)
EC50 (Streptokinase A): > 150 µM (not active)

CCOC(=O)Cc1cnc(NC(=O)NC(C(=O)OCC)(c2ccccc2)C(F)(F)F)s1 (stereo unspecified)
EC50 [4]: > 260 µM (inactive)

COc1ccccc1N1CCN(C(=O)c2sc3nc(C)nc(N4CCN(c5ccccn5)CC4)c3c2C)CC1
CC50 [3]: 20 µM (active)

Cc1nc(-c2ccccc2)nc2[nH]c(=O)n(-c3ccccc3)c(=O)c12
EC50 [1]: 8.63 µM (active)
EC50 [2]: 16.6 µM (active)
EC50 (H4): > 120 µM (not active)

O=S(=O)(c1ccccc1)N1CCCC(c2nc(O)c3nnn(Cc4cccc(Cl)c4)c3n2)C1 (stereo unspecified)
CC50 [3]: 13.1 µM (active)

N#Cc1c(N)nc2c(c1N)CC(COc1ccccc1)O2 (stereo unspecified)
EC50 [1]: 20.2 µM (active)
EC50 [2]: 47.2 µM (active)
EC50 (H4): 10.7 µM (active)

CC(=O)Nc1ccc(Nc2nc3c(S(=O)(=O)c4ccc(C)c(C)c4)nnn3c3ccccc23)cc1
EC50 [4]: 112 µM (active)

Cc1ccc(Cl)cc1N1CCN(C2CCCCC2NS(=O)(=O)c2ccccc2)CC1 (stereo unspecified)
EC50 [4]: > 260 µM (inactive)

Cc1ccc(NC(=O)c2ccccc2O)cc1
EC50 [4]: 35.5 µM (active)

O=C1N=C(Nc2ccc(Cl)cc2)SC1Cc1cc(Cl)ccc1Cl (stereo unspecified)
EC50 (Streptococcus): 7.38 µM (active)
EC50 (Streptokinase A): > 150 µM (not active)
EC50 [5]: 2.64 µM (active)

Fc1cccc(CSc2nc3cc[nH]cc-3n2)c1
EC50 [1]: 38.2 µM (active)
EC50 [2]: 39.2 µM (active)
EC50 (H4): 19.2 µM (active)

Cc1nc(NC(=O)/C=C/c2ccc(Cl)cc2Cl)sc1C(=O)N(C)C
EC50 [6]: > 195 µM (not active)

Cc1ccc(S(=O)(=O)NCCC(=O)N2CCN(S(=O)(=O)c3ccccc3)CC2)cc1C
EC50 [6]: > 195 µM (not active)

CCCN1C(=O)/C(=C/c2c[nH]nc2-c2ccccc2)SC1=S
CC50 [3]: 20.7 µM (active)

O=C1CCCN1CCC1CCN(C(=O)Nc2ccccc2)CC1
EC50 [6]: > 195 µM (not active)

CCN(CC)c1ccc([N+](=O)[O-])cc1C(=O)N1CCOCC1
EC50 [4]: > 260 µM (inactive)

Cn1cccc1C(=O)OCC(=O)Nc1ccc2c(c1)CCC2
EC50 [1]: 14.5 µM (active)
EC50 [2]: 6.37 µM (active)
EC50 (H4): 47.9 µM (inconclusive)

O=C(Nc1ccc(Nc2ccccc2)cc1)c1ccc(Cl)c([N+](=O)[O-])c1
CC50 [3]: 18.7 µM (active)

CCN(CC)C(=O)CCc1nnc(Cc2cccc(C(F)(F)F)c2)o1
EC50 [1]: 14.5 µM (active)
EC50 [2]: 12.5 µM (active)
EC50 (H4): > 120 µM (not active)

Clc1c(-c2nnc3n2CCC3)sc2ccccc12
CC50 [3]: 30.9 µM (active)

O=C(CN1CCN(c2ccc(F)cc2)CC1)Nc1cccc(C(F)(F)F)c1
CC50 [3]: 29.2 µM (active)

Cc1ccc(C(=O)O/N=C(\N)Cc2ccc([N+](=O)[O-])cc2)c(Cl)c1
EC50 [1]: > 120 µM (not active)
EC50 [2]: > 120 µM (not active)
EC50 (H4): 28.6 µM (active)

CCN(CC)S(=O)(=O)c1cc(C(=O)Nc2cc(C)on2)ccc1Cl
EC50 [6]: > 195 µM (not active)

CC(C)c1ccc(NC(=O)CNC(=O)Cn2cnc3ccccc3c2=O)cc1
EC50 [6]: 60.8 µM (active)

CCCN=C(S)NC1CC2CCCC(C1)N2Cc1ccc(F)cc1 (stereo unspecified)
EC50 [6]: > 195 µM (not active)

COC(=O)c1cc(NC(=O)c2cc(-c3ccc(OC)cc3)oc2C(F)(F)F)ccc1N1CCOCC1
CC50 [3]: 13.4 µM (active)

COc1cc(NC(=O)c2cc(C)nc3ccccc23)cc(OC)c1
EC50 [6]: > 195 µM (not active)

COC(=O)c1c(C)[nH]c(C)c1-c1cccc([N+](=O)[O-])c1
EC50 [6]: > 195 µM (not active)

CC(Cc1ccccc1)C(=O)Nc1ccccc1 (stereo unspecified)
EC50 [6]: > 195 µM (not active)

c1ccn2c(SCc3cn4ccsc4n3)nnc2c1
EC50 [1]: 2.4 µM (active)
EC50 [2]: 0.408 µM (active)
EC50 (H4): 108 µM (active)

Cc1ccc(C2C(C#N)=C(N)SC(N)=C2C#N)c(C)c1
EC50 [4]: > 260 µM (inactive)

CCCn1c(=O)c2ccccc2n2c(SCc3nc4ccccc4s3)nnc12
EC50 [1]: 29.2 µM (active)
EC50 [2]: 0.359 µM (active)
EC50 (H4): 5.47 µM (active)

CC1=CC(C)(C)N=C(Nc2ccc(C)cc2)S1
EC50 [1]: 12.6 µM (active)
EC50 [2]: 15.2 µM (active)
EC50 (H4): 24.4 µM (active)

CCn1c(SCC(=O)Nc2oc(-c3ccccc3)c(-c3ccccc3)c2C#N)nnc1-c1ccco1
EC50 (Streptococcus): > 150 µM (not active)
EC50 (Streptokinase A): 58.8 µM (active)
EC50 [5]: 10.7 µM (active)

Cc1cc2c(cc1S(=O)(=O)N1CCc3ccccc31)NC(=O)CO2
CC50 [3]: 13.8 µM (active)

COCCCn1c(Cc2csc(Nc3ccc(F)cc3)n2)nnc1SCC(N)=O
EC50 [4]: > 260 µM (inactive)

Cc1ccc(NC(=O)C(OC(=O)c2ccc(NC(N)=O)cc2)c2ccccc2)cc1Cl (stereo unspecified)
EC50 (Streptococcus): 9.31 µM (active)
EC50 (Streptokinase A): > 150 µM (not active)
EC50 [5]: 9.28 µM (active)

COc1ccc(-c2cc(C(=O)NNC(=O)c3csc(N4CCOCC4)n3)c3ccccc3n2)cc1
IC50 (H9c2): > 79 µM (inactive)

CCOC(=O)CN1CCC(c2cc(-c3ccc(Cl)cc3)[nH]n2)CC1
EC50 [4]: > 260 µM (inactive)

O=C(NN1C(=O)C2C(C1=O)C1C=CC2C12CC2)c1ccc(Cl)cc1 (stereo unspecified)
EC50 [4]: > 260 µM (inactive)

Cc1cccc(C)c1OCC(=O)N/N=C/C=C/c1ccco1
EC50 [4]: > 260 µM (inactive)

COc1ccc(CCCC(=O)N/N=C/c2cccc(OC)c2O)cc1C
EC50 [7]: 11.1 µM (active)
EC50 (Streptococcus): 3.61 µM (active)
EC50 (Streptokinase A): > 150 µM (not active)
EC50 [8]: 10.6 µM (active)
EC50 [9]: 48.6 µM (active)
AC50 [10]: 0.936 µM (active)
EC50 [5]: 2.9 µM (active)

Oc1ccc(Br)cc1/C=N/NC(=S)NCCc1ccccc1
EC50 (Streptococcus): 6.21 µM (active)
EC50 (Streptokinase A): > 150 µM (not active)
AC50 [10]: 4.29 µM (active)
EC50 [5]: 1.58 µM (active)

O=C[C@H](O)[C@@H](O)[C@H](O)CO [XYLOSE]
EC50 [6]: > 195 µM (not active)
